Results published in patent publication US9980943B2, “Methods of treating muscular dystrophy” (BOARD OF REGENTS OF THE NEVADA SYSTEM OF HIGHER EDUCATION, …, priority 2013, dated 2018).

Key:
Format in all cases: cell-based, mouse
[1] = system: α7 integrin (LacZ reporter in α7βgal+/− myoblasts); experiment: Myoblast α7+/LacZ integrin FDG assay (Burkin assay in myoblasts, 96-well); details: α7+/LacZ myoblasts, 96-well
[2] = system: β-galactosidase in CMV-LacZ C2C12 myotubes; experiment: CMV-LacZ secondary screen in C2C12 myotubes (β-Gal stabilizing assay); details: C2C12 CMV-LacZ myotubes, fold relative to DMSO
Summary of the method: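 A secondary screen identifies compounds that stabilize β-gal independently of the native promoter, using CMV-LacZ C2C12 cells. Curves span 0.5–40 μM at six levels, in duplicate.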

[3] = system: α7 integrin (LacZ reporter in α7+/LacZ myotubes); experiment: Myotube α7 integrin FDG assay (Burkin assay in myotubes, 96-well); details: myotubes

| Structure (SMILES) | Burkin Assay in Myoblasts, value relative to DMSO ([1]; 0.5 uM) | Burkin Assay in Myoblasts, value relative to DMSO ([1]; 1 uM) | Burkin Assay in Myoblasts, value relative to DMSO ([1]; 5 uM) | Burkin Assay in Myoblasts, value relative to DMSO ([1]; 10 uM) | CMV-LACZ in Myotubes, signal relative to DMSO ([2]; 5 uM) | CMV-LACZ in Myotubes, signal relative to DMSO ([2]; 10 uM) | CMV-LACZ in Myotubes, signal relative to DMSO ([2]; 20 uM) | CMV-LACZ in Myotubes, signal relative to DMSO ([2]; 40 uM) | Burkin Assay in Myoblasts, signal relative to DMSO ([1]; 0.5 uM) | Burkin Assay in Myoblasts, signal relative to DMSO ([1]; 1 uM) | Burkin Assay in Myoblasts, signal relative to DMSO ([1]; 5 uM) | Burkin Assay in Myoblasts, signal relative to DMSO ([1]; 10 uM) | Burkin Assay in Myoblasts, signal relative to DMSO ([1]; 20 uM) | Burkin Assay in Myoblasts, signal relative to DMSO ([1]; 40 uM) | Burkin Assay in Myotubes, α7 integrin LacZ reporter signal relative to DMSO ([3]; 0.5 uM) | Burkin Assay in Myotubes, α7 integrin LacZ reporter signal relative to DMSO ([3]; 1 uM) | Burkin Assay in Myotubes, α7 integrin LacZ reporter signal relative to DMSO ([3]; 5 uM) | Burkin Assay in Myotubes, α7 integrin LacZ reporter signal relative to DMSO ([3]; 10 uM) | Burkin Assay in Myotubes, α7 integrin LacZ reporter signal relative to DMSO ([3]; 20 uM) | Burkin Assay in Myotubes, α7 integrin LacZ reporter signal relative to DMSO ([3]; 40 uM) | also measured |
| --- | --- | --- | --- | --- | --- | --- | --- | --- | --- | --- | --- | --- | --- | --- | --- | --- | --- | --- | --- | --- | --- |
| CC(C)(CC(=O)O)CC(=O)N1CCCN(c2nccc(C(F)(F)F)n2)CC1 [MLS001181671-01] | 1.052 | 0.965 | 0.8759 | 0.8638 | 0.8803 | 0.9201 | 1.03 | 0.9377 |  |  |  |  |  |  |  |  |  |  |  |  | Burkin Assay in Myoblasts, value relative to DMSO ([1]; 20 uM): 0.8113; Burkin Assay in Myoblasts, value relative to DMSO ([1]; 40 uM): 0.891; Burkin Assay in Myotubes (signal relative to DMSO) ([3]; 0.5 uM): 1.071; Burkin Assay in Myotubes (signal relative to DMSO) ([3]; 1 uM): 0.9095; Burkin Assay in Myotubes (signal relative to DMSO) ([3]; 5 uM): 1.337; Burkin Assay in Myotubes (signal relative to DMSO) ([3]; 10 uM): 1.22; Burkin Assay in Myotubes (signal relative to DMSO) ([3]; 20 uM): 0.9854; Burkin Assay in Myotubes (signal relative to DMSO) ([3]; 40 uM): 0.9878 |
| O=C(O)c1cc(-c2ccccc2Cl)n(-c2cccc(Cl)c2)n1 [MLS001166325-01] | 1.017 | 0.9268 | 0.9487 | 0.9453 | 0.7726 | 0.9795 | 0.8969 | 0.8785 |  |  |  |  |  |  |  |  |  |  |  |  | Burkin Assay in Myoblasts, value relative to DMSO ([1]; 20 uM): 0.9772; Burkin Assay in Myoblasts, value relative to DMSO ([1]; 40 uM): 1.032; Burkin Assay in Myotubes (signal relative to DMSO) ([3]; 0.5 uM): 1.057; Burkin Assay in Myotubes (signal relative to DMSO) ([3]; 1 uM): 1.049; Burkin Assay in Myotubes (signal relative to DMSO) ([3]; 5 uM): 1.112; Burkin Assay in Myotubes (signal relative to DMSO) ([3]; 10 uM): 1.065; Burkin Assay in Myotubes (signal relative to DMSO) ([3]; 20 uM): 0.9593; Burkin Assay in Myotubes (signal relative to DMSO) ([3]; 40 uM): 1.0054 |
| Cc1ccc(NCc2nnc(SCC(=O)Nc3nnc(C)s3)n2C)cc1 [MLS000688437-01] |  |  |  |  | 1.232 | 0.9346 | 1.03 | 1.051 | 0.8901 | 0.8878 | 0.8233 | 0.9077 | 0.8203 | 0.8064 | 1.076 | 1.194 | 1.124 | 1.102 | 0.9929 | 1.034 |  |
| Cc1cc(C)nc(NC(=O)c2ccc(Cl)cc2Cl)n1 [MLS000706349-01] |  |  |  |  | 0.9465 | 0.9553 | 1.0245 | 1.1355 | 1.086 | 0.9797 | 0.8593 | 0.8434 | 0.8584 | 0.6533 | 1.193 | 1.008 | 0.9738 | 0.9294 | 1.073 | 0.9239 |  |
| CC(OC(=O)c1cc(-c2cccnc2)nc2ccccc12)C(=O)Nc1ccc2ccccc2c1 (centres unmarked) [MLS000389484-01] |  |  |  |  | 0.8524 | 0.8387 | 1.116 | 2.781 | 0.7848 | 0.7672 | 0.8524 | 0.8706 | 0.7331 | 0.6132 | 0.9292 | 0.7793 | 0.8638 | 0.6433 | 0.867 | 0.6946 |  |
| CCc1nnc(NC(=O)c2ccc(S(=O)(=O)NCC(C)C)cc2)s1 [MLS000027478-01] |  |  |  |  | 0.9489 | 0.924 | 0.9443 | 0.979 | 0.9552 | 0.9044 | 0.9721 | 0.9209 | 0.9145 | 0.816 | 1.0222 | 0.9043 | 0.984 | 0.9583 | 0.9854 | 0.9115 |  |
| O=C(O)CCCNC(=O)CCn1nnc2ccccc2c1=O [MLS000806880-01] |  |  |  |  | 0.9654 | 1.13 | 0.9145 | 1.0655 | 1.097 | 1.129 | 1.009 | 0.9524 | 0.9957 | 1.056 | 0.735 | 0.8731 | 0.9094 | 0.996 | 1.057 | 0.9353 |  |
| CCNC(=O)COC(=O)c1cc(-c2ccco2)nc2ccccc12 [MLS000772580-01] | 0.8487 | 0.9736 | 0.8554 | 0.8513 | 0.8986 | 1.0933 | 1.029 | 1.088 |  |  |  |  |  |  |  |  |  |  |  |  | Burkin Assay in Myoblasts, value relative to DMSO ([1]; 20 uM): 0.7938; Burkin Assay in Myoblasts, value relative to DMSO ([1]; 40 uM): 0.7251; Burkin Assay in Myotubes (signal relative to DMSO) ([3]; 0.5 uM): 0.851; Burkin Assay in Myotubes (signal relative to DMSO) ([3]; 1 uM): 0.8999; Burkin Assay in Myotubes (signal relative to DMSO) ([3]; 5 uM): 1.323; Burkin Assay in Myotubes (signal relative to DMSO) ([3]; 10 uM): 0.9474; Burkin Assay in Myotubes (signal relative to DMSO) ([3]; 20 uM): 0.9413; Burkin Assay in Myotubes (signal relative to DMSO) ([3]; 40 uM): 0.8535 |
